Legend:
Experiment in all cases: relative viability (nuclei count vs DMSO), 5 days (fraction); higher = more cells survive
FH535 + Luminespib = compound: CC1=C(C=CC(=C1)[N+](=O)[O-])NS(=O)(=O)C2=C(C=CC(=C2)Cl)Cl [FH535] + CCNC(=O)c1noc(-c2cc(C(C)C)c(O)cc2O)c1-c1ccc(CN2CCOCC2)cc1 [Luminespib] (partner 0.01 µM)
In short: (§1)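 Lung cancer cell lines, seeded in 1536-well plates, were treated the following day by pin tool with a single drug or with five library-drug doses (not always all listed) in √10 steps on top of a fixed anchor-drug dose. Cells were fixed and nuclei stained in one step after 5 days, and nuclei were counted. Relative viability is the nuclei count for treated wells divided by that for vehicle wells, reported as medians of duplicate plates.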

FH535 + Foretinib = compound: CC1=C(C=CC(=C1)[N+](=O)[O-])NS(=O)(=O)C2=C(C=CC(=C2)Cl)Cl [FH535] + COc1cc2c(Oc3ccc(NC(=O)C4(C(=O)Nc5ccc(F)cc5)CC4)cc3F)ccnc2cc1OCCCN1CCOCC1 [Foretinib] (partner 0.25 µM)
In short: as §1

FH535 + OSI-027 = compound: CC1=C(C=CC(=C1)[N+](=O)[O-])NS(=O)(=O)C2=C(C=CC(=C2)Cl)Cl [FH535] + COc1cccc2cc(-c3nc([C@H]4CC[C@H](C(=O)O)CC4)n4ncnc(N)c34)[nH]c12 [OSI-027] (partner 0.5 µM)
In short: as §1

FH535 + Alpelisib = compound: CC1=C(C=CC(=C1)[N+](=O)[O-])NS(=O)(=O)C2=C(C=CC(=C2)Cl)Cl [FH535] + Cc1nc(NC(=O)N2CCC[C@H]2C(N)=O)sc1-c1ccnc(C(C)(C)C(F)(F)F)c1 [Alpelisib] (partner 2 µM)
In short: as §1

FH535 + Decitabine = compound: CC1=C(C=CC(=C1)[N+](=O)[O-])NS(=O)(=O)C2=C(C=CC(=C2)Cl)Cl [FH535] + Nc1ncn([C@H]2C[C@H](O)[C@@H](CO)O2)c(=O)n1 [Decitabine] (partner 2 µM)
In short: as §1

Cell Line	relative viability (FH535 + Luminespib; first compound 0.04 µM)	relative viability (FH535 + Luminespib; first compound 0.1265 µM)	relative viability (FH535 + Luminespib; first compound 0.4 µM)	relative viability (FH535 + Luminespib; first compound 1.265 µM)	relative viability (FH535 + Foretinib; first compound 0.04 µM)	relative viability (FH535 + Foretinib; first compound 0.1265 µM)	relative viability (FH535 + Foretinib; first compound 0.4 µM)	relative viability (FH535 + Foretinib; first compound 1.265 µM)	relative viability (FH535 + OSI-027; first compound 0.04 µM)	relative viability (FH535 + OSI-027; first compound 0.1265 µM)	relative viability (FH535 + OSI-027; first compound 0.4 µM)	relative viability (FH535 + OSI-027; first compound 1.265 µM)	relative viability (FH535 + Alpelisib; first compound 0.04 µM)	relative viability (FH535 + Alpelisib; first compound 0.1265 µM)	relative viability (FH535 + Alpelisib; first compound 0.4 µM)	relative viability (FH535 + Alpelisib; first compound 1.265 µM)	relative viability (FH535 + Decitabine; first compound 0.04 µM)	relative viability (FH535 + Decitabine; first compound 0.1265 µM)	relative viability (FH535 + Decitabine; first compound 0.4 µM)	relative viability (FH535 + Decitabine; first compound 1.265 µM)
EMC-BAC-2	1.21	1.23	1.12	1.04	0.978	0.97	0.997	0.809	0.339	0.402	0.395	0.364	0.731	0.762	0.716	0.632	0.885	1	0.985	0.892
NCI-H727	0.323	0.5	0.327	0.297	1.04	0.637	0.925	0.684	0.554	0.498	0.545	0.478	0.542	0.523	0.518	0.533	0.845	0.945	0.851	0.877
LU99A	0.225	0.272	0.209	0.236	0.706	0.865	0.736	0.761	0.241	0.304	0.284	0.279	0.457	0.498	0.534	0.522	0.789	0.944	0.841	0.794
LK-2	0.201	0.165	0.168	0.173	1.23	1.33	1.39	1.11	0.181	0.208	0.2	0.155	0.915	1.06	1.09	1.01	0.254	0.26	0.298	0.286
SW 900	0.186	0.163	0.161	0.178	0.745	0.94	0.764	0.541	0.531	0.582	0.505	0.333					0.443	0.547	0.418	0.418
NCI-H322M	0.816	0.904	0.866	0.805	0.966	1	0.961	0.882	0.543	0.54	0.577	0.394	0.722	0.783	0.83	0.761	0.677	0.711	0.694	0.682
NCI-H2405	0.76	0.752	0.602	0.605	1.01	1.07	0.967	0.761	0.605	0.62	0.564	0.439	0.685	0.843	0.84	0.585	0.688	0.75	0.689	0.571
NCI-H1563	0.491	0.556	0.615	0.52	0.909	0.825	0.994	0.874	0.736	0.701	0.801	0.678	0.89	0.931	0.981	0.837				
HCC-827	0.676	0.794	0.682	0.336	1.03	1.07	0.975	0.587	0.798	0.821	0.754	0.664	0.954	0.972	0.926	0.446	0.297	0.334	0.323	0.296
NCI-H1666	0.988	0.933	0.966	0.983	0.919	0.975	0.913	0.8	0.866	0.843	0.777	0.705	1.04	0.956	1.01	0.693	0.718	0.686	0.733	0.626
SK-MES-1	0.814	0.907	0.797	0.56	0.918	1.05	0.963	0.814	0.679	0.573	0.565	0.435	0.865	0.941	0.855	0.881	0.356	0.347	0.429	0.386
201T	1.04	1.03	1.03	0.735	0.987	1.15	1.11	1.02	0.728	0.484	0.719	0.538	1.02	1.01	1.02	1	0.824	0.842	0.872	0.652
RERF-LC-KJ	1.27	1.14	1.13	0.728	0.927	0.895	0.869	0.787	0.538	0.616	0.6	0.4	0.739	0.822	0.921	0.751	0.645	0.707	0.55	0.467
NCI-H3122	0.0802	0.122	0.0923	0.0705	0.888	0.901	0.924	0.931	0.919	1.06	0.885	0.751	0.715	0.782	0.829	0.745	0.338	0.393	0.46	0.413
LXF-289	0.635	0.837	0.611	0.61	0.975	0.983	0.862	0.684	0.735	0.809	0.688	0.69	0.958	0.98	0.91	0.794	0.357	0.422	0.369	0.336
EKVX	0.876	0.935	0.859	0.764	0.792	0.629	0.744	0.587	0.676	0.778	0.618	0.618	0.825	0.976	0.823	0.75	0.373	0.413	0.331	0.27
A-427	0.778	1.19	0.885	0.703	1.06	0.965	1.04	0.977	0.368	0.496	0.378	0.43	1.08	1.04	1.02	1.04	0.545	0.593	0.549	0.576
IA-LM					1.21	1.21	1.08	0.701					0.827	0.691	0.642	0.688				

Cell Line	relative viability (FH535 + Luminespib; first compound 0.04 µM)	relative viability (FH535 + Luminespib; first compound 0.1265 µM)	relative viability (FH535 + Luminespib; first compound 0.4 µM)	relative viability (FH535 + Luminespib; first compound 1.265 µM)	relative viability (FH535 + Foretinib; first compound 0.04 µM)	relative viability (FH535 + Foretinib; first compound 0.1265 µM)	relative viability (FH535 + Foretinib; first compound 0.4 µM)	relative viability (FH535 + Foretinib; first compound 1.265 µM)	relative viability (FH535 + OSI-027; first compound 0.04 µM)	relative viability (FH535 + OSI-027; first compound 0.1265 µM)	relative viability (FH535 + OSI-027; first compound 0.4 µM)	relative viability (FH535 + OSI-027; first compound 1.265 µM)	relative viability (FH535 + Alpelisib; first compound 0.04 µM)	relative viability (FH535 + Alpelisib; first compound 0.1265 µM)	relative viability (FH535 + Alpelisib; first compound 0.4 µM)	relative viability (FH535 + Alpelisib; first compound 1.265 µM)	relative viability (FH535 + Decitabine; first compound 0.04 µM)	relative viability (FH535 + Decitabine; first compound 0.1265 µM)	relative viability (FH535 + Decitabine; first compound 0.4 µM)	relative viability (FH535 + Decitabine; first compound 1.265 µM)
ChaGo-K-1	0.653	0.665	0.55	0.576	0.916	1.05	0.967	0.722	0.479	0.596	0.507	0.432					0.496	0.517	0.54	0.377
NCI-H1944	0.672	0.82	0.727	0.669	0.855	0.922	0.882	0.857	0.35	0.449	0.364	0.365		0.858	0.848	0.837	0.391	0.489	0.414	0.441
LCLC-97TM1	0.736	0.763	0.742	0.436	0.854	0.949	1.03	0.679	0.431	0.49	0.441	0.395		0.225	0.224	0.181	0.247	0.273	0.247	0.187
NCI-H358	0.325	0.368	0.293	0.308	0.647	0.727	0.63	0.481	0.737	0.536	0.648	0.476	0.919	0.929	0.84	0.643	0.151	0.219	0.205	0.182
NCI-H1993	0.87	0.736	0.55	0.449	0.76	0.753	0.741	0.575	0.556	0.522	0.531	0.617	0.629	0.78	0.662	0.596	0.563	1.13	0.357	0.613
NCI-H520	0.159	0.212	0.257	0.24	0.684	0.781	0.574	0.875	0.199	0.286	0.296	0.192	0.825	0.931	0.952	0.799	0.462	0.488	0.521	0.355
NCI-H1975	0.178	0.22	0.164	0.167	0.889	0.973	0.936	0.789	0.721	0.705	0.584	0.534	0.614	0.682	0.607	0.487	0.375	0.383	0.351	0.365
CAL-12T	0.331	0.496	0.727	0.536	1.15	1.11	1.04	0.577	0.63	0.688	0.504	0.407	1.21	1.16	1.06	1.01				
NCI-H1792	0.441	0.433	0.436	0.263					0.636	0.661	0.667	0.524	0.64	0.73	0.664	0.53	0.564	0.523	0.506	0.457
HCC-366					0.648	1.06	0.958	0.516	0.695	0.862	1.09	0.756	0.35	0.485	0.478	0.349	0.308	0.342	0.335	0.293
HCC-44	1.09	1.16	1.02	0.575					0.494	0.458	0.407	0.321	0.779	0.843	0.741	0.566	0.896	0.938	0.845	0.835
NCI-H1703					0.416		0.324	0.344					0.403	0.362	0.327	0.269				
NCI-H1650	0.175	0.218	0.201	0.189	0.966	1.28	1.01	0.825	0.558	0.591	0.456	0.523					0.323	0.427	0.46	0.442
HCC-78					0.565	0.561	0.608	0.51	0.374	0.334	0.357	0.38	0.345	0.396	0.361	0.302	0.541	0.673	0.573	0.529
NCI-H2342	0.738	0.713	0.705	0.6	1.19	1.09	1.04	0.792	0.516	0.593	0.641	0.567					0.706	0.632	0.736	0.568
NCI-H522	1.29	1.17	1.16	0.996					0.7	0.767	0.734	0.636					0.588	0.697	0.712	0.698
NCI-H2228	0.127	0.152	0.156	0.0969	0.752	0.87	0.707	0.936	0.487	0.71	0.658	0.522	0.687	0.669	0.911	0.63				
